Experiments:
hSTING-WT = hSTING-WT (Homo sapiens (Human), UniProt Q86WV6, H232R); assay: Radiometric filtration binding competition assay, hSTING-WT
Procedure: A radiometric filtration binding competition assay was performed to quantify the binding affinity of compounds of the present application for the human or mouse STING protein, or associated HAQ human isoform. […] The resulting dose response was fit by non-linear regression to determine an IC50 value, from which a Ki value for each compound was extrapolated.
The resulting complexes were then filtered, dried, and scintillation fluid was added and the remaining radio signal was measured to determine the degree of compound ligand inhibition. This assay format was optimized for both the WT and HAQ isoforms of the human protein and the mouse orthologue protein.
Probe Concentration: Minimum concentration that achieved max assay window • g. Assay Format: Scintillation Proximity Bead or Filtration Binding Plate • h. […] Assay incubation times for successive incubation steps
WT-hSWAT: WT_FBA_HIS-SUMO-hSWAT IC50 (μM) (“WT”=Wild-type); HAQ-hSWAT: HAQ_FBA_HIS-SUMO-hSWAT IC50 (μM) (“HAQ”=human HAQ allele of STING protein); and WT-mSWAT: MOUSE_FBA_HIS-SUMO-mnSWAT IC50 (μM) which is the mouse isoform of STING protein.

STING protein = STING protein (Homo sapiens (Human), UniProt Q86WV6, H232R); assay: Cell based reporter assay of IRF activation (IRF-luciferase), THP1-dual-KI R232; conditions: read-out: THP1-dual-KI R232_IRF(Luciferase)_Activity Maximum measured (%)
hSTING-R232 = hSTING-R232 (Homo sapiens (Human), UniProt Q86WV6, H232R); assay: STING differential scanning fluorimetry (DSF) assay, WT human STING; conditions: WT (R232) human STING aa140-379, net shift in melting temperature
Sequence of hSTING-R232 (Q86WV6 140-379 H232R): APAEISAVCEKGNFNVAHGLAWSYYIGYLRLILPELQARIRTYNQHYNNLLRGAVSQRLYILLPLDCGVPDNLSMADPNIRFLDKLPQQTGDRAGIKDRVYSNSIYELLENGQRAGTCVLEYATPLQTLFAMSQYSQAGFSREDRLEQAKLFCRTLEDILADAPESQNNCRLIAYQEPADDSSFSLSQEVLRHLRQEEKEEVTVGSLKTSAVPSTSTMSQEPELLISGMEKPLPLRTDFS

Sequence of STING protein (Q86WV6 whole entry H232R, the tested form may be a part): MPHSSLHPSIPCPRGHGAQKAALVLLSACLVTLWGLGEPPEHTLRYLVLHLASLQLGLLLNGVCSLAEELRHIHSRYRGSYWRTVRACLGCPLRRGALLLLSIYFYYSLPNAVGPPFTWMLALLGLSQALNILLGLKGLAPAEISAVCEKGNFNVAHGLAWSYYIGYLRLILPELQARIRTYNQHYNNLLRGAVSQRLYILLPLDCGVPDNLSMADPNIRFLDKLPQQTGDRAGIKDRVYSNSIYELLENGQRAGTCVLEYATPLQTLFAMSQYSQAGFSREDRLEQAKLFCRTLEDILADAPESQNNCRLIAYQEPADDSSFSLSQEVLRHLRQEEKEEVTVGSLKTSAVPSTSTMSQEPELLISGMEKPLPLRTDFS
Sequence of hSTING-WT (Q86WV6 140-379 H232R): as the sequence (Q86WV6 140-379 H232R) above

Row | SMILES | IC50 (hSTING-WT) [µM] | Emax (STING protein) [%] | WT_DSF_hSWAT Tm Shift (° C.) (hSTING-R232)
1 | O=C(O)Cn1c2cc(Nc3cnc(Cl)cn3)ccc2c(=O)c2ccc(Cl)c(Cl)c21 [Compound 258] | 20 to 100 | < 5 | D (“D” > 7° C.)
2 | CSc1ccc2c(=O)c3ccc(Cl)c(Cl)c3n(CC(=O)O)c2c1 [Compound 137] | 100 to 300 | 25 to 50 | C (“C” = 2-7° C,)
3 | COc1c(Cl)ccc2c(=O)c3ccc(C4=CCCOC4)cc3n(CC(=O)O)c12 [Compound 252] | 20 to 100 | – | D (“D” > 7° C.)
4 | COc1c(Cl)ccc2c(=O)c3ccc(S(C)(=O)=O)cc3n(CC(=O)O)c12 [Compound 249] | > 300 | – | B (“B” = 0-2° C.)
5 | CNc1ccc2c(=O)c3ccc(Cl)c(OC)c3n(CC(=O)O)c2c1 [Compound 299] | 20 to 100 | > 50 | C (“C” = 2-7° C,)
6 | COc1c(Cl)ccc2c(=O)c3ccc(SC4CCCCC4)cc3n(CC(=O)O)c12 [Compound 233] | < 20 | > 50 | D (“D” > 7° C.)
7 | C[C@H](C(=O)O)n1c2ccccc2c(=O)c2ccc(Cl)c(Cl)c21 [Compound 101] | > 300 | – | A (“A” < 0° C.)
8 | COc1c(Cl)ccc2c(=O)c3ccc(Nc4ccc(O)cc4)cc3n(CC(=O)O)c12 [Compound 236] | < 20 | – | D (“D” > 7° C.)
9 | CC(C)c1ccc2c3ccc(Cl)c(Cl)c3n(CC(=O)O)c2c1 [Compound 210] | 20 to 100 | < 5 | A (“A” < 0° C.)
10 | O=C(O)Cn1c2cc(C3CCC(O)CC3)ccc2c(=O)c2ccc(Cl)c(Cl)c21 (centres unmarked) [Compound 264] | – | 5 to 25 | C (“C” = 2-7° C,)
11 | CCCOc1c(Cl)ccc2c(=O)c3ccccc3n(CC(=O)O)c12 [Compound 284] | > 300 | 5 to 25 | C (“C” = 2-7° C,)
12 | O=C(O)Cn1c2cc(-c3nccs3)ccc2c(=O)c2ccc(Cl)c(Cl)c21 [Compound 187] | 100 to 300 | – | B (“B” = 0-2° C.)
13 | O=C(O)Cn1c2cc(C(F)F)ccc2c(=O)c2ccc(Cl)c(Cl)c21 [Compound 166] | > 300 | – | B (“B” = 0-2° C.)
14 | Cc1ccc2c(=O)c3ccc(Cl)c(Cl)c3n(CC(=O)O)c2c1C [Compound 134] | 20 to 100 | < 5 | A (“A” < 0° C.)
15 | COc1c(Cl)ccc2c(=O)c3ccc(C)cc3n(CC(=O)NC#N)c12 [Compound 338] | 100 to 300 | 25 to 50 | C (“C” = 2-7° C,)
16 | COc1c(Cl)ccc2c(=O)c3ccc(C(C)C)cc3n(CC(=O)O)c12 [Compound 245] | 20 to 100 | – | D (“D” > 7° C.)
17 | O=C(O)Cn1c2cc(N3CCCC3)ccc2c(=O)c2ccc(Cl)c(Br)c21 [Compound 201] | 100 to 300 | 5 to 25 | C (“C” = 2-7° C,)
18 | CONC(=O)Cn1c2cc(C)ccc2c(=O)c2ccc(Cl)c(OC)c21 [Compound 339] | > 300 | 25 to 50 | B (“B” = 0-2° C.)
19 | CC(C)c1ccc2c(=O)c3ccc(Cl)c(Cl)c3n(CC(=O)NS(C)(=O)=O)c2c1 [Compound 352] | 20 to 100 | > 50 | C (“C” = 2-7° C,)
20 | C[C@H]1CCCN1c1ccc2c(=O)c3ccc(Cl)c(Br)c3n(CC(=O)O)c2c1 [Compound 202] | 20 to 100 | 5 to 25 | C (“C” = 2-7° C,)
21 | C[C@@H](C(=O)O)n1c2ccccc2c(=O)c2ccc(Cl)c(Cl)c21 [Compound 100] | > 300 | – | A (“A” < 0° C.)
22 | CSc1ccc2c(=O)c3ccc(Cl)c(Br)c3n(CC(=O)O)c2c1 [Compound 196] | 20 to 100 | – | D (“D” > 7° C.)

Row | SMILES | IC50 (hSTING-WT) [µM] | Emax (STING protein) [%] | WT_DSF_hSWAT Tm Shift (° C.) (hSTING-R232)
23 | O=C(O)Cn1c2ccccc2c(=O)c2ccc(Cl)c(OC3CCC3)c21 [Compound 247] | 100 to 300 | – | A (“A” < 0° C.)
24 | O=C(O)Cn1c2cc([C@H]3CC[C@H](O)CC3)ccc2c(=O)c2ccc(Cl)c(Cl)c21 [Compound 264] | < 20 | – | –
25 | O=C(Cn1c2ccccc2c(=O)c2ccc(Cl)c(Cl)c21)NO [Compound 353] | 100 to 300 | – | A (“A” < 0° C.)
26 | CCOc1c(Cl)ccc2c(=O)c3ccc(C(C)(C)C)cc3n(CC(=O)O)c12 [Compound 224] | 20 to 100 | – | –
27 | O=C(O)CCCn1c2ccccc2c(=O)c2ccc(Cl)c(Cl)c21 [Compound 205] | > 300 | – | A (“A” < 0° C.)
28 | CC(C)c1ccc2c(c1)c1ccc(Cl)c(Cl)c1n2CC(=O)O [Compound 240] | 20 to 100 | – | –
29 | O=C(O)Cn1c2cc(C(O)(C(F)(F)F)C(F)(F)F)ccc2c(=O)c2ccc(Cl)c(Cl)c21 [Compound 167] | > 300 | – | A (“A” < 0° C.)
30 | COc1c(Cl)ccc2c(=O)c3ccc(C4CCOCC4)cc3n(CC(=O)O)c12 [Compound 255] | 20 to 100 | – | C (“C” = 2-7° C,)
31 | Cn1ccnc1-c1ccc2c(=O)c3ccc(Cl)c(Cl)c3n(CC(=O)O)c2c1 [Compound 188] | > 300 | – | A (“A” < 0° C.)
32 | CN(C)c1c(Cl)ccc2c(=O)c3ccccc3n(CC(=O)O)c12 [Compound 136] | 20 to 100 | – | D (“D” > 7° C.)
33 | O=C(O)Cn1c2cc(-c3cccnc3)ccc2c(=O)c2ccc(Cl)c(Cl)c21 [Compound 190] | > 300 | – | C (“C” = 2-7° C,)
34 | O=C(O)Cn1c2cc(C3CCC(O)CC3)ccc2c(=O)c2ccc(Cl)c(Cl)c21 (centres unmarked) [Compound 214] | 20 to 100 | – | D (“D” > 7° C.)
35 | CSc1c(Cl)ccc2c(=O)c3ccc(Nc4ccc(F)cc4)cc3n(CC(=O)O)c12 [Compound 259] | < 20 | – | D (“D” > 7° C.)
36 | CC(C)Oc1c(Cl)ccc2c(=O)c3ccccc3n(CC(=O)O)c12 [Compound 246] | 100 to 300 | – | C (“C” = 2-7° C,)
37 | CC(C)c1ccc2c(=O)c3ccc(I)c(Cl)c3n(CC(=O)O)c2c1 [Compound 195] | > 300 | – | C (“C” = 2-7° C,)
38 | Cn1ccc(-c2ccc3c(=O)c4ccc(Cl)c(Cl)c4n(CC(=O)O)c3c2)n1 [Compound 184] | > 300 | – | C (“C” = 2-7° C,)
39 | CC(O)c1ccc2c(=O)c3ccc(Cl)c(Cl)c3n(CC(=O)O)c2c1 (centres unmarked) [Compound 191] | > 300 | – | B (“B” = 0-2° C.)
40 | COc1c(Cl)ccc2c(=O)c3cc(F)c(C(C)C)cc3n(CC(=O)O)c12 [Compound 248] | > 300 | – | B (“B” = 0-2° C.)
41 | O=C(O)Cn1c2cc(-c3cc[nH]n3)ccc2c(=O)c2ccc(Cl)c(Cl)c21 [Compound 182] | 100 to 300 | – | C (“C” = 2-7° C,)
42 | CC(C)(O)c1ccc2c(=O)c3ccc(Cl)c(Cl)c3n(CC(=O)O)c2c1 [Compound 168] | 100 to 300 | – | A (“A” < 0° C.)
43 | O=C(O)Cn1c2ccccc2c2ccc(Cl)c(Cl)c21 [Compound 209] | > 300 | – | A (“A” < 0° C.)
